Test results as given in patent US10064865B2, “Composition comprising phosphodiesterase type 5 inhibitor for inhibiting apoptosis of nerve cells” (ARIBIO INC., priority 2012, dated 2018).

Assays:
caspase-3 = experiment: Example 1 immunohistochemistry: caspase-3-immunoreactive cells; assay type: in vivo, Sprague-Dawley (SD) rats; conditions: for Numbers of neurons: Caspase-3+: 29 days after neuron apoptosis
Description: (§1) The induction of neuron apoptosis was carried out by damaging the right hemisphere of the brain of animals. Specifically, animals were anesthetized with 2 or 3% isoflurane in the mixture of 70% N2O and 28.5% O2, and were maintained with 1 to 1.5% isoflurane in the mixture of 70% N2O and 28.5% O2. After that the temporalis muscle was bisected and reflected through an incision made midway between the eye and the eardrum canal. The proximal MCA was exposed through a subtemporal craniectomy by microdental drills without removing the zygomatic arch and without transecting the facial nerve. […] Mortality was less than 5%. For sham control, all procedures were performed in the same way, with the exception of the occlusion of the MCA.
After deparraffinized of cerebral histological paraffin sections, citrate buffer antigen (epitope) retrieval pretreatment were conducted as previously (Shi S R et al., J Histochem Cytochem. 41:1599-604(1993)). Briefly, pre-heat water bath with staining dish containing 10 mM citrate buffers (pH 6.0) until temperature reaches 95-100° C. Immerse slides in the staining dish and place the lid loosely on the staining dish. Incubate for 20 minutes and turn off the water bath. Place the staining dish at room temperature and allow the slides to cool for 20 minutes. After epitope retrivals, sections were immunostained as following steps:
Incubate sections with methanol and 0.3% H2O2 for 30 minutes for blocking endogenous peroxidase activity at room temperature and rinse in 0.01M phosphate buffered saline (PBS; pH 7.2) for 3 times;
Incubate sections with normal horse serum blocking solution (Vector Lab. Inc., Burlingame, USA. Dilution 1:100) for 1 hour to block non-specific binding of immunoglobulin at room temperature in humidity chamber, and rinse in 0.01M PBS for 3 times;
Incubate sections with primary antisera for overnight at 4° C. in humidity chamber and rinse in 0.01M PBS for 3 times;
Incubate sections with biotinylated universal secondary antibody (Vector Lab., Dilution 1:50) for 1 hour at room temperature in humidity chamber and rinse in 0.01M PBS for 3 times;
Incubate sections with ABC reagents (Vectastain Elite ABC Kit, Vector Lab., Dilution 1:50) for 1 hour at room temperature in humidity chamber and rinse in 0.01M PBS for 3 times;
Incubate sections in Peroxidae substrate kit (Vector Lab.) for 5 min at room temperature and rinse in 0.01M PBS for 3 times;
Counterstain with Mayer's hematoxylin solution and rinse in running tap water for 30 minutes;
Dehydrate through 95% ethanol for 2 minutes, 100% ethanol for 3 times and Clear in xylene for two times; and
Coverslip with permanent mounting medium and observed under light microscope (Nikkon, Japan).
Histomorphometry: The nerve cells occupied by over 10% of immunoreactivities, the density, of each antiserum, caspase-3 and PARP were regarded as immunoreactive. In the present study, the numbers of each caspase-3 and PARP-immunoreactive cells among mm^2 of ipsilateral peri-infarct/defect cerebral cortex were measured using a computer-assisted image analysis program, respectively.
All data were expressed as mean±standard deviation (S.D.) of ten rats. Multiple comparison tests for different dose groups were conducted. Variance homogeneity was examined using the Levene test (Levene A, Clin Otalary, 1981; 6:145-51). […] Statistical analyses were conducted using SPSS (Release 14K, SPSS Inc., USA; Ludbrook, Clin Exp Pharmacol Physiol, 1997; 24:294-6). In addition, the percent changes between neuron apoptosis control and mirodenafil treated rats were calculated to help the understanding of the efficacy of test material as follow equation 3. Percentage changes as compared with neuron apoptosis control (%)=[((Data of mirodenafil treated groups−Data of neuron apoptosis control)/Data of neuron apoptosis control)×100] [EQUATION 3]

PARP = experiment: Example 2 immunohistochemistry: PARP-immunoreactive cells; assay type: in vivo, Sprague-Dawley (SD) rats; conditions: for Numbers of neurons: PARP+: 1 mg/kg s.c. once a day for 14 days, 29 days after neuron apoptosis
Description: as §1
After deparaffinized of prepared […] histological paraffin sections, citrate buffer antigen (epitope) retrieval pretreatment were conducted as previously (Shi S R et al., J Histochem Cytochem. 41:1599-604(1993)). Briefly, pre-heat water bath with staining dish containing 10 mM citrate buffers (pH 6.0) until temperature reaches 95-100° C. Immerse slides in the staining dish and place the lid loosely on the staining dish. Incubate for 20 minutes and turn off the water bath. Place the staining dish at room temperature and allow the slides to cool for 20 minutes. After epitope retrievals, sections were immunostained using avidin-biotin complex (ABC) methods for caspase-3 and PARP. Endogenous peroxidase activity was blocked by incubated in methanol and 0.3% H2O2 for 30 minutes, and non-specific binding of immunoglobulin was blocked with normal horse serum blocking solution (Vector Lab., Burlingame, Calif., USA. Dilution 1:100) for 1 hr in humidity chamber. Primary antiserum were treated for overnight at 4° C. in humidity chamber, and then incubated with biotinylated universal secondary antibody (Vector Lab., Dilution 1:50) and ABC reagents (Vectastain Elite ABC Kit, Vector Lab., Dilution 1:50) for 1 hr at room temperature in humidity chamber. Finally, reacted with peroxidae substrate kit (Vector Lab.) for 3 min at room temperature. All sections were rinse in 0.01M PBS for 3 times, between steps. The neurons occupied by over 10% of immunoreactivities, the density, of each antiserum for caspase-3 and PARP were regarded as positive, and the mean numbers of caspase-3 and PARPimmunoreactive cells dispersed in the mm^2 of ipsilateral peri-infarct/defect cerebral cortex were counted using an automated image analysis process as establish methods (Lee et al., 2010; Song et al., 2012), respectively. The histopathologist was blinded to the group distribution when performing the analysis.
All data were expressed as mean±standard deviation (S.D.) of ten rats. Multiple comparison tests for different dose groups were conducted. Variance homogeneity was examined using the Levene test (Levene A, Clin Otalary, 1981; 6:145-51). […] Statistical analyses were conducted using SPSS for Windows (Release 14K, SPSS Inc., USA; Ludbrook, Clin Exp Pharmacol Physiol, 1997; 24:294-6). In addition, the percent changes as compared with neuron apoptosis control and mirodenafil treated rats were calculated to help the understanding of the efficacy of test substances as follow Equation 6 and 7. Percentage Changes as Compared with Sham Control (%)=[((Data of neuron apoptosis control−Data of sham control rat)/Data of sham control rats)×100] [EQUATION 6] Percentage Changes as Compared with neuron apoptosis Control (%)=[((Data of test material treated rats−Data of neuron apoptosis control rats)/Data of neuron apoptosis control rats)×100] [EQUATION 7]

## CCCOc1ccc(S(=O)(=O)N2CCN(CCO)CC2)cc1-c1nc2c(CCC)cn(CC)c2c(=O)[nH]1 [Mirodenafil, mirodenafil]
caspase-3; 0.5 mg/kg
  numbers of caspase-3-immunoreactive neurons, change as compared with neuron apoptosis control: −33.43%
caspase-3; 0.5 mg/kg s.c. once a day
  Numbers of neurons: Caspase-3+: 43.80 ± 10.37^ab cells/mm^2 of cerebral cortex
caspase-3; 1 mg/kg
  numbers of caspase-3-immunoreactive neurons, change as compared with neuron apoptosis control: −76.44%
caspase-3; 1 mg/kg s.c. once a day
  Numbers of neurons: Caspase-3+: 15.50 ± 3.57^ab cells/mm^2 of cerebral cortex
caspase-3; 2 mg/kg
  numbers of caspase-3-immunoreactive neurons, change as compared with neuron apoptosis control: −77.96%
caspase-3; 2 mg/kg s.c. once a day
  Numbers of neurons: Caspase-3+: 14.50 ± 3.69^ab cells/mm^2 of cerebral cortex
PARP; 1 mg/kg from 24 hrs after surgery
  numbers of PARP-immunoreactive neurons at 29 days, change as compared with neuron apoptosis control: −53.92%
PARP; 1 mg/kg from 72 hrs after surgery
  numbers of PARP-immunoreactive neurons at 29 days, change as compared with neuron apoptosis control: −39.72%
PARP; 1 mg/kg from 168 hrs after surgery
  numbers of PARP-immunoreactive neurons at 29 days, change as compared with neuron apoptosis control: −15.68%
PARP; start 24 hrs after operation
  Numbers of neurons: PARP+: 36.14 ± 5.32^ab cells/mm^2 of cerebral cortex
PARP; start 72 hrs after operation
  Numbers of neurons: PARP+: 47.28 ± 5.36^ab cells/mm^2 of cerebral cortex
PARP; start 168 hrs after operation
  Numbers of neurons: PARP+: 66.13 ± 9.61^ac cells/mm^2 of cerebral cortex
